Measurements: the NIST ThermoML archive (doi:10.1016/j.tca.2014.02.019)

Assay: xn = mol fraction of the nth substance listed
Details: 101 kPa, Liquid; for viscosity: Falling or rolling sphere viscometry; for mass density: Vibrating tube method

CCOS(=O)(=O)[O-].CC[N+]1(C)CCCCC1 [1-ethyl-1-methylpiperidinium ethyl sulfate] + O
Details | mass density [kg/m3] | viscosity [mPa·s]
298.15 K, x1 = 0.106 | 1113.1 | 7.436
298.15 K, x1 = 0.1407 | 1128.31 | 11.14
298.15 K, x1 = 0.2161 | 1148.02 | 22.79
298.15 K, x1 = 0.2643 | 1155.38 | 31.79
298.15 K, x1 = 0.3605 | 1164.49 | 54.56
298.15 K, x1 = 0.4662 | 1170.4 | 96.57
298.15 K, x1 = 0.5583 | 1173.75 | 159.1
298.15 K, x1 = 0.6591 | 1176.55 | 276.5
298.15 K, x1 = 0.7296 | 1177.92 | 419.2
298.15 K, x1 = 0.8133 | 1179.24 | 690.5
298.15 K, x1 = 1 | 1181.33 | 1821
303.15 K, x1 = 0.106 | 1109.81 | 6.222
303.15 K, x1 = 0.1407 | 1124.96 | 9.197
303.15 K, x1 = 0.2161 | 1144.56 | 18.22
303.15 K, x1 = 0.2643 | 1152 | 25.04
303.15 K, x1 = 0.3605 | 1161.22 | 42.54
303.15 K, x1 = 0.4662 | 1167.23 | 74.01
303.15 K, x1 = 0.5583 | 1170.68 | 119.5
303.15 K, x1 = 0.6591 | 1173.32 | 202.2
303.15 K, x1 = 0.7296 | 1174.77 | 296.9
303.15 K, x1 = 0.8133 | 1176.06 | 473.2
303.15 K, x1 = 1 | 1178.23 | 1186
308.15 K, x1 = 0.106 | 1106.45 | 5.272
308.15 K, x1 = 0.1407 | 1121.5 | 7.687
308.15 K, x1 = 0.2161 | 1141.12 | 14.99
308.15 K, x1 = 0.2643 | 1148.59 | 20.4
308.15 K, x1 = 0.3605 | 1157.92 | 33.84
308.15 K, x1 = 0.4662 | 1164.02 | 57.65
308.15 K, x1 = 0.5583 | 1167.53 | 91.73
308.15 K, x1 = 0.6591 | 1170.15 | 150.9
308.15 K, x1 = 0.7296 | 1171.56 | 218.5
308.15 K, x1 = 0.8133 | 1172.89 | 333.5
308.15 K, x1 = 1 | 1175.1 | 795.7
313.15 K, x1 = 0.106 | 1103.05 | 4.518
313.15 K, x1 = 0.1407 | 1118.01 | 6.508
313.15 K, x1 = 0.2161 | 1137.63 | 12.34
313.15 K, x1 = 0.2643 | 1145.18 | 16.7
313.15 K, x1 = 0.3605 | 1154.61 | 27.55
313.15 K, x1 = 0.4662 | 1160.8 | 45.97
313.15 K, x1 = 0.5583 | 1164.37 | 71.4
313.15 K, x1 = 0.6591 | 1167.05 | 115.8
313.15 K, x1 = 0.7296 | 1168.39 | 163.1
313.15 K, x1 = 0.8133 | 1169.71 | 242.2
313.15 K, x1 = 1 | 1171.79 | 549.9
318.15 K, x1 = 0.106 | 1099.61 | 3.91
318.15 K, x1 = 0.1407 | 1114.5 | 5.576
318.15 K, x1 = 0.2161 | 1134.17 | 10.38
318.15 K, x1 = 0.2643 | 1141.75 | 14.03
318.15 K, x1 = 0.3605 | 1151.3 | 22.7
318.15 K, x1 = 0.4662 | 1157.58 | 37.27
318.15 K, x1 = 0.5583 | 1161.21 | 56.71
318.15 K, x1 = 0.6591 | 1163.94 | 89.86
318.15 K, x1 = 0.7296 | 1165.32 | 123.9
318.15 K, x1 = 0.8133 | 1166.53 | 171.1
318.15 K, x1 = 1 | 1168.85 | 391.8
323.15 K, x1 = 0.106 | 1096.14 | 3.415
323.15 K, x1 = 0.1407 | 1110.96 | 4.818
323.15 K, x1 = 0.2161 | 1130.66 | 8.774
323.15 K, x1 = 0.2643 | 1138.31 | 11.77
323.15 K, x1 = 0.3605 | 1147.97 | 18.73
323.15 K, x1 = 0.4662 | 1154.35 | 30.42
323.15 K, x1 = 0.5583 | 1158.04 | 45.67
323.15 K, x1 = 0.6591 | 1160.83 | 70.97
323.15 K, x1 = 0.7296 | 1162.25 | 92.8
323.15 K, x1 = 0.8133 | 1163.48 | 130.8
323.15 K, x1 = 1 | 1165.73 | 285.8
328.15 K, x1 = 0.106 | 1092.63 | 3.006
328.15 K, x1 = 0.1407 | 1107.4 | 4.206
328.15 K, x1 = 0.2161 | 1127.13 | 7.538
328.15 K, x1 = 0.2643 | 1134.87 | 10.13
328.15 K, x1 = 0.3605 | 1144.63 | 15.77
328.15 K, x1 = 0.4662 | 1151.12 | 25.37
328.15 K, x1 = 0.5583 | 1154.87 | 37.45
328.15 K, x1 = 0.6591 | 1157.71 | 56.75
328.15 K, x1 = 0.7296 | 1159.16 | 73.46
328.15 K, x1 = 0.8133 | 1160.43 | 101.6
328.15 K, x1 = 1 | 1162.62 | 212.6
333.15 K, x1 = 0.106 | 1089.08 | 2.667
333.15 K, x1 = 0.1407 | 1103.8 | 3.7
333.15 K, x1 = 0.2161 | 1123.62 | 6.103
333.15 K, x1 = 0.2643 | 1131.4 | 8.625
333.15 K, x1 = 0.3605 | 1141.31 | 13.48
333.15 K, x1 = 0.4662 | 1147.88 | 21.32
333.15 K, x1 = 0.5583 | 1151.7 | –
333.15 K, x1 = 0.6591 | 1154.59 | 44.89
333.15 K, x1 = 0.7296 | 1156.08 | 58.82
333.15 K, x1 = 0.8133 | 1157.38 | 80.45
333.15 K, x1 = 1 | 1159.54 | 162.5
338.15 K, x1 = 0.106 | 1085.5 | 2.383
338.15 K, x1 = 0.1407 | 1100.19 | 3.278
338.15 K, x1 = 0.2161 | 1120.07 | 4.937
338.15 K, x1 = 0.2643 | 1127.93 | 7.493
338.15 K, x1 = 0.3605 | 1137.96 | 11.57
338.15 K, x1 = 0.4662 | 1144.64 | 18.19
338.15 K, x1 = 0.5583 | 1148.52 | 26.14
338.15 K, x1 = 0.6591 | 1151.47 | 37.58
338.15 K, x1 = 0.7296 | 1152.99 | 47.7
338.15 K, x1 = 0.8133 | 1154.33 | 64.86
338.15 K, x1 = 1 | 1156.56 | 126.1
343.15 K, x1 = 0.106 | 1081.88 | 2.143
343.15 K, x1 = 0.1407 | 1096.54 | 2.926
343.15 K, x1 = 0.2161 | 1116.49 | 4.099
343.15 K, x1 = 0.2643 | 1124.44 | 6.755
343.15 K, x1 = 0.3605 | 1134.62 | 10.06
343.15 K, x1 = 0.4662 | 1141.4 | 15.53
343.15 K, x1 = 0.5583 | 1145.35 | 22.23
343.15 K, x1 = 0.6591 | 1148.36 | 32.44
343.15 K, x1 = 0.7296 | 1149.91 | 40.29
343.15 K, x1 = 0.8133 | 1151.31 | 53
343.15 K, x1 = 1 | 1153.58 | 99.87
